What all share (assay): cells
What all share (parameters): species or system melanoma cell lines (3D spheres); 3D melanoma tumour sphere viability, CellTiter-Glo 3D luminescence, 7-point dose response
Background: Cellular ATP, detected with luciferase, serves as a proxy for viable cell number.

One assay has as its system A15. The settings on record: 3D tumour spheres, 72 h. As for the experimental part: (§1) Dose responses to TRX-E-009-1 and TRX-E-002-1 were performed using 3D tumour sphere cultures of 21 melanoma cell lines. Cells were dissociated and seeded[17] at previously optimized densities into 384-well Ultra-Low Attachment plates (#3827, Corning). Cells were treated the following day with a 7 point 3-fold dilution series, 5.4 µM to 7.4 nM using a Sciclone ALH 3000 [compound left out] handling robot. Changes in cell viability were assayed at 72 hours using the Cell Titre Glo 3D assay (#G9683, Promega), luminescence reads were performed on a SynergyMx Plate Reader (BioTek Instruments). Luminescence values were normalized to the DMSO/vehicle control prior to comparisons. […] A second independent panel of melanoma cell lines grown as tumour spheres was assessed for sensitivity to both TRX-E-009-1 and TRX-E-002-1. […] As found with the Oncopanel melanoma cell lines, a subset (one third) of the cell lines were sensitive to killing by these BP compounds, with <20% viability at the highest concentration tested. These lines will be referred to as sensitive. The cell lines with >25% viability at the highest dose appear comparatively resistant to killing by the compounds and are referred to as resistant. Subsequent experiments utilized A2058, D04, SKMEL13, and A375 as representative of sensitive cell lines, while A15, SKMEL28, C013, and C002 were used to assess the effects of TRX-E-009-1 and TRX-E-002-1 on resistant lines.

The subject of another assay is A2058. The following applies: Homo sapiens, A2058; 3D tumour spheres, 72 h. As for the experimental part: as §1
For the next assay, the system named is A375. The settings on record: Homo sapiens, A-375; 3D tumour spheres, 72 h. As for the experimental part:
as §1

The subject of another assay is BL. The settings on record: 3D tumour spheres, 72 h. As for the experimental part: as §1
A further assay deals with C002. The following applies: 3D tumour spheres, 72 h. As for the experimental part:
as §1

The next assay relates to C013. The settings on record: 3D tumour spheres, 72 h. As for the experimental part: as §1
A further assay deals with C045. The following applies: 3D tumour spheres, 72 h. As for the experimental part: as §1
The next assay relates to C052. The following applies: 3D tumour spheres, 72 h. As for the experimental part:
as §1

The test system of another assay is C054. The settings on record: 3D tumour spheres, 72 h. As for the experimental part: as §1
The next assay relates to D04. The following applies: 3D tumour spheres, 72 h. As for the experimental part:
as §1

A further assay relates to D20. The following applies: 3D tumour spheres, 72 h. As for the experimental part:
as §1

The subject of the next assay is D25. The following applies: 3D tumour spheres, 72 h. As for the experimental part:
as §1

In the next assay the test system is D28. The settings on record: 3D tumour spheres, 72 h. As for the experimental part: as §1
The test system of a further assay is HT144. The settings on record: Homo sapiens, HT-144; 3D tumour spheres, 72 h. As for the experimental part: as §1
The next assay concerns MM329. The settings on record: 3D tumour spheres, 72 h. As for the experimental part: as §1
The next assay deals with MM370. The settings on record: 3D tumour spheres, 72 h. As for the experimental part: as §1
The test system of another assay is MM415. The following applies: 3D tumour spheres, 72 h. As for the experimental part: as §1
For another assay, the system named is MM603. The following applies: 3D tumour spheres, 72 h. As for the experimental part:
as §1

A further assay has as its system MM96L. The following applies: Homo sapiens, MM96L; 3D tumour spheres, 72 h. As for the experimental part:
as §1

The next assay has as its system SKMEL13. The following applies: 3D tumour spheres, 72 h. As for the experimental part: as §1
In the next assay the test system is SKMEL28. The settings on record: Homo sapiens, SK-MEL-28; 3D tumour spheres, 72 h. As for the experimental part:
as §1

Each structure is given as a SMILES string.

As a reminder, the IC50 is the concentration that inhibits the measured activity by half.

With `COc1cc([C@@H]2COc3c(ccc(O)c3C)[C@@H]2c2ccc(O)c(F)c2)cc(OC)c1O` (racemic) [TRX-E-009-1], the IC50 in the assay with A15 is 489 nM; in the assay on A2058 it was 292 nM; with A375, 321 nM; in the assay with BL it was 340 nM; in the assay on C002, 977 nM; in the assay with C013, 318 nM. Besides, the IC50 worked out at 461 nM in the assay on C045; 292 nM in the assay with C052; 857 nM in the assay with C054; 253 nM with D04; 1110 nM with D20; 5020 nM in the assay with D25. Further, the half-inhibitory concentration (IC50) in the assay with D28 came out at 787 nM; with HT144 it was 233 nM; in the assay with MM329, 178 nM; with MM370, 290 nM; in the assay on MM415, 323 nM; in the assay on MM603 it was 284 nM. The IC50 is 281 nM in the assay with MM96L, 244 nM with SKMEL13 and 4580 nM in the assay on SKMEL28.

These data come from article PMC5865165, “Mechanism of action of the third generation benzopyrans and evaluation of their broad anti-cancer activity in vitro and in vivo” (Scientific Reports, 2018).
